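How tested: cells in 96-well plates exposed to compound for 48 hours at five concentrations. At the GI50, growth is halved.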 Calls of active or inactive are those of the source. Rule as the data show it: active = GI50 up to about 1.1 µM and inactive = higher.
Tests used:
Assay in all cases: NCI anticancer screen, dose series, 48 h
[1] = system: NCI-H460
[2] = system: U-251
[3] = system: LOX IMVI
[4] = system: OVCAR-4
[5] = system: HL-60
[6] = system: 786-0
[7] = system: K562
[8] = system: SF-268
[9] = system: HCT-116
[10] = system: LXFL 529
[11] = system: SW-620
[12] = system: CCRF-CEM
[13] = system: EKVX
[14] = system: MOLT-4
[15] = system: RXF 393
[16] = system: SK-MEL-2
[17] = system: UACC-257
[18] = system: OVCAR-5
[19] = system: UO-31

| SMILES | GI50 [1] | GI50 [2] | GI50 [3] | GI50 [4] | GI50 [5] | GI50 [6] | GI50 [7] | GI50 [8] | GI50 [9] | GI50 [10] | GI50 [11] | GI50 [12] | GI50 [13] | GI50 [14] | GI50 [15] | GI50 [16] | GI50 [17] | GI50 [18] | GI50 [19] |
| --- | --- | --- | --- | --- | --- | --- | --- | --- | --- | --- | --- | --- | --- | --- | --- | --- | --- | --- | --- |
| CCOC(=O)c1nc(-c2ccccc2)oc1OCC | > 100 µM (inactive) | > 100 µM (inactive) | 36.8 µM (inactive) | > 100 µM (inactive) | 49.9 µM (inactive) | > 100 µM (inactive) | 74.1 µM (inactive) | > 100 µM (inactive) | > 100 µM (inactive) | > 100 µM (inactive) | > 100 µM (inactive) | > 100 µM (inactive) | 21 µM (inactive) | 60.7 µM (inactive) | > 100 µM (inactive) |  |  |  |  |
| Cc1cc(O)nc(NNC(C#N)c2c(O)ccc3ccccc23)n1 (centres undefined) | 2.89 µM (inactive) | 2.91 µM (inactive) | 4.08 µM (inactive) | 3.32 µM (inactive) | 0.966 µM (active) | 3.52 µM (inactive) | 3.68 µM (inactive) | 2.28 µM (inactive) | 2.43 µM (inactive) | 8.79 µM (inactive) | 4.56 µM (inactive) | 1.73 µM (inactive) |  | 2.34 µM (inactive) | 10.4 µM (inactive) | 12.2 µM (inactive) | 3.64 µM (inactive) | 16.7 µM (inactive) | 1.73 µM (inactive) |
| N/N=C(/C(=O)Nc1cccc(Cl)c1)C(C(=O)c1ccc(O)cc1O)C1OC(=O)c2ccccc21 (centres undefined) | 52.2 µM (inactive) | 46.9 µM (inactive) | 87.7 µM (inactive) | > 100 µM (inactive) | > 100 µM (inactive) | > 100 µM (inactive) | > 100 µM (inactive) | 51.4 µM (inactive) | > 100 µM (inactive) | > 100 µM (inactive) | > 100 µM (inactive) | 35.1 µM (inactive) | > 100 µM (inactive) | 31.8 µM (inactive) |  | > 100 µM (inactive) | > 100 µM (inactive) | > 100 µM (inactive) | > 100 µM (inactive) |
| CCOC(=O)[C@H]1Nc2ccc([N+](=O)[O-])cc2C2c3ccccc3CC21 (some centres undefined) | 18.8 µM (inactive) | 16.1 µM (inactive) | 17.9 µM (inactive) | 18.4 µM (inactive) |  | 19.7 µM (inactive) | 3.89 µM (inactive) | 16.5 µM (inactive) | 16.7 µM (inactive) | 5.79 µM (inactive) | 11.9 µM (inactive) | 0.337 µM (active) |  | 5.12 µM (inactive) | 4.53 µM (inactive) | 31.6 µM (inactive) | 18.7 µM (inactive) | 16.6 µM (inactive) | 15 µM (inactive) |
| CCCCOP1(=O)CC(C)=C(Cl)C(C)(OC)C1 (centres undefined) | > 100 µM (inactive) | > 100 µM (inactive) | > 100 µM (inactive) | > 100 µM (inactive) | 26.9 µM (inactive) | > 100 µM (inactive) | 29.6 µM (inactive) | > 100 µM (inactive) | 61.4 µM (inactive) | 45.2 µM (inactive) | 46.7 µM (inactive) | 28.4 µM (inactive) | > 100 µM (inactive) | 34.4 µM (inactive) | > 100 µM (inactive) | 41 µM (inactive) | > 100 µM (inactive) |  | > 100 µM (inactive) |
| O=C1CCN2CCC(=O)c3c2c(cc2ccccc32)N1 | > 100 µM (inactive) | > 100 µM (inactive) | > 100 µM (inactive) |  |  | > 100 µM (inactive) | > 100 µM (inactive) | > 100 µM (inactive) | > 100 µM (inactive) | > 100 µM (inactive) | > 100 µM (inactive) | > 100 µM (inactive) | > 100 µM (inactive) | > 100 µM (inactive) | 44.7 µM (inactive) | > 100 µM (inactive) | > 100 µM (inactive) | > 100 µM (inactive) | 75.5 µM (inactive) |
| COC(=O)C1CCC(C)CC1=O (centres undefined) | > 100 µM (inactive) | > 100 µM (inactive) | > 100 µM (inactive) | > 100 µM (inactive) | > 100 µM (inactive) | > 100 µM (inactive) | > 100 µM (inactive) | > 100 µM (inactive) | > 100 µM (inactive) | > 100 µM (inactive) | > 100 µM (inactive) | > 100 µM (inactive) | > 100 µM (inactive) | > 100 µM (inactive) | > 100 µM (inactive) | > 100 µM (inactive) | > 100 µM (inactive) | > 100 µM (inactive) | > 100 µM (inactive) |
| COc1cccc(NC(=O)CSc2nnc(Cc3ccccc3)o2)c1 | > 100 µM (inactive) | > 100 µM (inactive) | > 100 µM (inactive) | > 100 µM (inactive) | 54.3 µM (inactive) | > 100 µM (inactive) | > 100 µM (inactive) | > 100 µM (inactive) | > 100 µM (inactive) | > 100 µM (inactive) | > 100 µM (inactive) | > 100 µM (inactive) |  | > 100 µM (inactive) | > 100 µM (inactive) | > 100 µM (inactive) | > 100 µM (inactive) | > 100 µM (inactive) | > 100 µM (inactive) |
| CC1=C(SC#N)S(=O)(=O)N(c2ccccc2)C(C)=C1SC#N | 32.8 µM (inactive) | 16.9 µM (inactive) | 12.9 µM (inactive) | 33.3 µM (inactive) | 29 µM (inactive) | 49.4 µM (inactive) | 21 µM (inactive) | 69.2 µM (inactive) | 3.27 µM (inactive) | 22.4 µM (inactive) | 41.8 µM (inactive) | 17.5 µM (inactive) |  | 20 µM (inactive) | 21.8 µM (inactive) | 26.7 µM (inactive) | 32 µM (inactive) | 39.4 µM (inactive) | 24.4 µM (inactive) |
| COc1cc2c(c(OC)c1OC)-c1ccc(SC)c(=O)cc1[C@@H](NCc1cccc(C#N)c1)CC2 | 0.0268 µM (active) | 0.0178 µM (active) | 0.0184 µM (active) | 0.0075 µM (active) | 0.0419 µM (active) | 0.0332 µM (active) | 0.0361 µM (active) | 0.0164 µM (active) | 0.0173 µM (active) | 0.0147 µM (active) | 0.0132 µM (active) | 0.0229 µM (active) | 0.0973 µM (active) | 0.0328 µM (active) | 0.00408 µM (active) | 0.0304 µM (active) | 0.0448 µM (active) | 0.037 µM (active) | 0.308 µM (active) |
| O=C(NC12CC3CC(CC(C3)C1)C2)C(=O)c1c[nH]c2ccccc12 | 12.1 µM (inactive) | 13.5 µM (inactive) | 13.1 µM (inactive) | 16.3 µM (inactive) | 15.5 µM (inactive) | 13.1 µM (inactive) | 5.77 µM (inactive) | 16.6 µM (inactive) | 14.7 µM (inactive) | 13.4 µM (inactive) |  | 16.4 µM (inactive) | 17.6 µM (inactive) | 12.2 µM (inactive) |  | 17.9 µM (inactive) | 12.9 µM (inactive) | 17.9 µM (inactive) | 20 µM (inactive) |

Source: ChEMBL document CHEMBL1201862, “PubChem BioAssay data set” (2004)
